Experimental data as given in US20230203029A1 (priority 2020, published 2023).

Molecular target: T1, recombinant human MERTK expressed in live cells (HEK 293, MERTK-Nanoluc fusion vector) (Homo sapiens, UniProt Q12866)
T1 construct: host or cells: HEK 293
T1 sequence (Q12866 21-999): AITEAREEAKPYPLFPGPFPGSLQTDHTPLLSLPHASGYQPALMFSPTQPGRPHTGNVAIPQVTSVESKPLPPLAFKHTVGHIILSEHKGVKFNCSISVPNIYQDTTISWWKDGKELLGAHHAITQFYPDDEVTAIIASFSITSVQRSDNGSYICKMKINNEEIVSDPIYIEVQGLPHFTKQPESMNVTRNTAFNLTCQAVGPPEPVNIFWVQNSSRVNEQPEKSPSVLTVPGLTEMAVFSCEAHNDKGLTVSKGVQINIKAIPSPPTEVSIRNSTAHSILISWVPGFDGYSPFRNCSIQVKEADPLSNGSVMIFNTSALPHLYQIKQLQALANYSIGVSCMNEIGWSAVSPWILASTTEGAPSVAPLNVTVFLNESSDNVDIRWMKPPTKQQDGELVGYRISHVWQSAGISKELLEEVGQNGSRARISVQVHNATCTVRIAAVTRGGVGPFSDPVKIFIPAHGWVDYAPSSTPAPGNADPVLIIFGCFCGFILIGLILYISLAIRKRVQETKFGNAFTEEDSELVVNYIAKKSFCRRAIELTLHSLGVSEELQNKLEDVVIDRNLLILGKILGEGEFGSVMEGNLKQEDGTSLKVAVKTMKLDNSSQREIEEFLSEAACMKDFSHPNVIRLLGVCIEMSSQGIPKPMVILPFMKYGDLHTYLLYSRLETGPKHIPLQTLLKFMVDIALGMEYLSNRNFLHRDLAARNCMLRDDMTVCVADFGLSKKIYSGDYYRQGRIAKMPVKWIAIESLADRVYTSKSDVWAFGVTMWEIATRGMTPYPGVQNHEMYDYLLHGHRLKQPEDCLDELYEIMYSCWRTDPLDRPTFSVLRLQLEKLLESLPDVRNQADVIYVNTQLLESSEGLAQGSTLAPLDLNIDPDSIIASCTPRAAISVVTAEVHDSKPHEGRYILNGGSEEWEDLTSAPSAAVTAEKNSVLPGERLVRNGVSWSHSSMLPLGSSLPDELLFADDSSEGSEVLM
Assay: Assay 2 MERTK cellular target engagement (NanoBRET TE) assay
Type: cell-based
Conditions: not given

Row | SMILES | IC50
1 | Cc1cc(NC(=O)c2cccn(-c3ccccc3)c2=O)ccc1Oc1ccnc2cnc(N3CCNCC3)cc12 [Example 30, N-[3-methyl-4-[(6-piperazin-1-yl-1,7-naphthyridin-4-yl)oxy]phenyl]-2-oxo-1-phenyl-pyridine-3-carboxamide] | 244 nM

Same assay, conditions: HEK 293 cells, tracer K9, 2 h at 37° C.; read-out: Assay 2 Cell TE MER IC50

Row | SMILES | IC50
2 | CN1CCC(NC(=O)c2cc3c(Oc4ccc(NC(=O)c5cn(C6CC6)c(=O)n(-c6ccc(F)cc6)c5=O)cc4)ccnc3cn2)CC1 [Example 15, 4-[4-[[1-Cyclopropyl-3-(4-fluorophenyl)-2,4-dioxo-pyrimidine-5-carbonyl]amino]phenoxy]-N-(1-methyl-4-piperidyl)-1,7-naphthyridine-6-carboxamide] | 133 nM
3 | C[C@H](CO)n1cc(C(=O)Nc2ccc(Oc3ccnc4cnc(C(=O)NC5CCN(C)CC5)cc34)cc2)c(=O)n(-c2ccc(F)cc2)c1=O [Example 14, 4-[4-[[3-(4-Fluorophenyl)-2,4-dioxo-1-[(1R)-2-hydroxy-1-methyl-ethyl]pyrimidine-5-carbonyl]amino]phenoxy]-N-(1-methyl-4-piperidyl)-1,7-naphthyridine-6-carboxamide] | 75.9 nM
4 | CN1CCC(NC(=O)c2cc3c(Oc4ccc(NC(=O)c5cccn(-c6ccccc6)c5=O)cc4F)ccnc3cn2)CC1 [Example 33, 4-[2-fluoro-4-[(2-oxo-1-phenyl-pyridine-3-carbonyl)amino]phenoxy]-N-(1-methyl-4-piperidyl)-1,7-naphthyridine-6-carboxamide] | 74.3 nM
5 | CN1CCC(NC(=O)c2cc3c(Nc4ccc(NC(=O)c5cccn(-c6ccccc6)c5=O)cc4)ccnc3cn2)CC1 [Example 3, N-(1-methyl-4-piperidyl)-4-[4-[(2-oxo-1-phenyl-pyridine-3-carbonyl)amino]anilino]-1,7-naphthyridine-6-carboxamide] | 26.3 nM
6 | CC(C)n1cc(C(=O)Nc2ccc(Oc3ccnc4cnc(N5CCNCC5)cc34)cc2)c(=O)c(-c2ccc(F)cc2)c1 [Example 13, 5-(4-Fluorophenyl)-1-isopropyl-4-oxo-N-[4-[(6-piperazin-1-yl-1,7-naphthyridin-4-yl)oxy]phenyl]pyridine-3-carboxamide] | 6.7 nM
7 | O=C(Nc1ccc(Oc2ccnc3cnc(N4CCNCC4)cc23)cc1)c1cn(C2CC2)c(=O)n(-c2ccc(F)cc2)c1=O [Example 36, 1-cyclopropyl-3-(4-fluorophenyl)-2,4-dioxo-N-[4-[(6-piperazin-1-yl-1,7-naphthyridin-4-yl)oxy]phenyl]pyrimidine-5-carboxamide] | 68.1 nM
8 | CN1CCC(NC(=O)c2cc3c(Oc4ccc(NC(=O)c5cn(C)cc(-c6ccc(F)cc6)c5=O)cc4)ccnc3cn2)CC1 [Example 37, 4-[4-[[5-(4-fluorophenyl)-1-methyl-4-oxo-pyridine-3-carbonyl]amino]phenoxy]-N-(1-methyl-4-piperidyl)-1,7-naphthyridine-6-carboxamide] | 41.4 nM

Further lines, results first:

Row | IC50 | SMILES
9 | 45.4 nM | CC(C)n1cc(C(=O)Nc2ccc(Oc3ccnc4cnc(N5CCNCC5)cc34)cc2)c(=O)n(-c2ccc(F)cn2)c1=O [Example 12.4, 3-(5-fluoro-2-pyridyl)-1-isopropyl-2,4-dioxo-N-[4-[(6-piperazin-1-yl-1,7-naphthyridin-4-yl)oxy]phenyl]pyrimidine-5-carboxamide]
10 | 244 nM | CC(C)n1cc(C(=O)Nc2ccc(Oc3ccnc4cnc(N5CCNCC5)cc34)cc2)c(=O)n(-c2ccccn2)c1=O [Example 12.3, 1-isopropyl-2,4-dioxo-N-[4-[(6-piperazin-1-yl-1,7-naphthyridin-4-yl)oxy]phenyl]-3-(2-pyridyl)pyrimidine-5-carboxamide]
11 | 8.3 nM | CC(C)n1cc(C(=O)Nc2ccc(Oc3ccnc4cnc(C(=O)NC5CCN(C)CC5)cc34)cc2)c(=O)c(-c2ccc(F)cc2)c1 [Example 37.1, 4-[4-[[5-(4-fluorophenyl)-1-isopropyl-4-oxo-pyridine-3-carbonyl]amino]phenoxy]-N-(1-methyl-4-piperidyl)-1,7-naphthyridine-6-carboxamide]
12 | 30.5 nM | CC(C)n1cc(C(=O)Nc2ccc(Oc3ccnc4cnc(C(=O)NC5CCN(C)CC5)cc34)cn2)c(=O)n(-c2ccc(F)cc2)c1=O [Example 27.5, 4-[[6-[[3-(4-fluorophenyl)-1-isopropyl-2,4-dioxo-pyrimidine-5-carbonyl]amino]-3-pyridyl]oxy]-N-(1-methyl-4-piperidyl)-1,7-naphthyridine-6-carboxamide]
13 | 18.3 nM | O=C(Nc1ccc(Oc2ccnc3cnc(N4CCNCC4)cc23)cc1)c1cccn(-c2ccc(F)cc2)c1=O [Example 12.2, 1-(4-fluorophenyl)-2-oxo-N-[4-[(6-piperazin-1-yl-1,7-naphthyridin-4-yl)oxy]phenyl]pyridine-3-carboxamide]
14 | 12.4 nM | Cn1cc(C(=O)Nc2ccc(Oc3ccnc4cnc(N5CCNCC5)cc34)cc2)c(=O)c(-c2ccc(F)cc2)c1 [Example 13.1, 5-(4-fluorophenyl)-1-methyl-4-oxo-N-[4-[(6-piperazin-1-yl-1,7-naphthyridin-4-yl)oxy]phenyl]pyridine-3-carboxamide]

System: BCR-Ba/F3 control cell line
Assay: Assay 5 Ba/F3 cell survival assay, BCR-none control line
Type: cell-based
Conditions: Mus musculus, BaF3
Experimental: Assay 5—Ba/F3 Cell Survival Assays.
The inhibitory potencies of compounds were assessed in a Ba/F3 cell survival assay, using the Ba/F3 Pro B-cell line, recombinantly expressing a BCR-human AXL kinase domain fusion protein (pACD320/AXL, Advanced Cellular Dynamics Inc), TEL-human MERTK fusion domain (pACD1000/MERTK, Advanced Cellular Dynamics Inc), TEL-human Tyro3 fusion domain (pACD1000/TYRO3, Advanced Cellular Dynamics Inc), or control TEL-none (ACD320, Advanced Cellular Dynamics Inc) BRC-none constructs (ACD1000, Advanced Cellular Dynamics Inc). 10 ng/mL recombinant murine IL3 (R&D, 403-ML-010) was included in the media when propagating negative control TEL-none or BCR-none lines only. Cells were maintained in RMPI 1640 (Corning 15-040-CV) culture media containing 10% heat inactivated semi-synthetic FBS (RMBIO FGR-BBT), 2 mM L-Glutamine (Sigma, G7513), 100 IU/mL Penicillin-[…] Streptomycin (Sigma, P4333), and 500 ng/mL Puromycin (Sigma, P8833). Experiments were performed in 50 μl growth media, including the test compounds of interest, and dispensing 5000 cells/well in logarithmic-phase growth into a 384 well white Optiplate (Perkin Elmer 6007299). […] The final assay DMSO concentration was 0.25%. […]
The plate was then equilibrated for 5 min at room temperature and luminescence read on a BMG Pherastar FSX using the LUM plus optic module. […]

Row | SMILES | IC50
15 | O=C(Nc1ccc(Oc2ccnc3cnc(N4CCN(C5COC5)CC4)cc23)cn1)c1ccnn(-c2ccc(F)cc2)c1=O [Example 20, 2-(4-fluorophenyl)-N-[5-[[6-[4-(oxetan-3-yl)piperazin-1-yl]-1,7-naphthyridin-4-yl]oxy]-2-pyridyl]-3-oxo-pyridazine-4-carboxamide] | 830 nM
